# Experimental data reported in the supplement of paper PMC10307832.
# Columns and labels:
# Experiment in all cases: relative viability (nuclei count vs DMSO), 5 days (fraction); higher = more cells survive
# Midostaurin + Phenformin = compound: CO[C@@H]1[C@H](N(C)C(=O)c2ccccc2)C[C@H]2O[C@]1(C)n1c3ccccc3c3c4c(c5c6ccccc6n2c5c31)C(=O)NC4 [Midostaurin] + N=C(N)NC(=N)NCCc1ccccc1 [Phenformin] (partner 250 µM)
# Method in brief: (§1)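 Medians of duplicate plates are given as relative viability. That measure is the nuclei count in treated wells divided by the count in vehicle wells. Counts were taken on 4× images of lung cancer cell lines in 1536-well plates, 5 days after pin-tool dosing the day after seeding with one drug alone or a fixed anchor-drug dose plus five library-drug doses (not always all listed) in √10 steps.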
# [1] = compound: COc1cc(-c2nn([C@H]3CC[C@H](N4CCN(C(C)=O)CC4)CC3)c3ncnc(N)c23)ccc1NC(=O)c1cc2ccccc2n1C + N=C(N)NC(=N)NCCc1ccccc1 [Phenformin] (partner 250 µM)
# Method in brief: as §1
# [2] = compound: COc1cc(-c2nn([C@H]3CC[C@H](N4CCN(C(C)=O)CC4)CC3)c3ncnc(N)c23)ccc1NC(=O)c1cc2ccccc2n1C
# Method in brief: (§2)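 Viability is treated-well nuclei as a fraction of vehicle-well nuclei, reported as the median across plates. Before counting, lung cancer cell lines were kept overnight at 37 °C in 1536-well plates, pinned with five √10-spaced library-drug doses on vehicle-anchored plates, and left 5 days without medium change, then fixed, permeabilised and Hoechst-stained in one step, imaged at 4× and counted by MetaXpress. A plate passed only if control CV was below 25% and at least one doubling occurred.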
# Midostaurin = compound: CO[C@@H]1[C@H](N(C)C(=O)c2ccccc2)C[C@H]2O[C@]1(C)n1c3ccccc3c3c4c(c5c6ccccc6n2c5c31)C(=O)NC4 [Midostaurin]
# Method in brief: as §2
# Midostaurin + Navitoclax = compound: CO[C@@H]1[C@H](N(C)C(=O)c2ccccc2)C[C@H]2O[C@]1(C)n1c3ccccc3c3c4c(c5c6ccccc6n2c5c31)C(=O)NC4 [Midostaurin] + CC1(C)CCC(c2ccc(Cl)cc2)=C(CN2CCN(c3ccc(C(=O)NS(=O)(=O)c4ccc(N[C@H](CCN5CCOCC5)CSc5ccccc5)c(S(=O)(=O)C(F)(F)F)c4)cc3)CC2)C1 [Navitoclax] (partner 0.5 µM)
# Method in brief: as §1
Cell Line,relative viability (Midostaurin + Phenformin; first compound 0.01 µM),relative viability (Midostaurin + Phenformin; first compound 0.03162 µM),relative viability (Midostaurin + Phenformin; first compound 0.1 µM),relative viability (Midostaurin + Phenformin; first compound 0.3162 µM),relative viability ([1]; first compound 0.0128 µM),relative viability ([1]; first compound 0.04048 µM),relative viability ([1]; first compound 0.128 µM),relative viability ([1]; first compound 1.28 µM),relative viability ([2]; 0.0128 µM),relative viability ([2]; 0.04048 µM),relative viability ([2]; 0.128 µM),relative viability ([2]; 1.28 µM),relative viability (Midostaurin; 0.01 µM),relative viability (Midostaurin; 0.03162 µM),relative viability (Midostaurin; 0.1 µM),relative viability (Midostaurin; 0.3162 µM),relative viability (Midostaurin + Navitoclax; first compound 0.01 µM),relative viability (Midostaurin + Navitoclax; first compound 0.03162 µM),relative viability (Midostaurin + Navitoclax; first compound 0.1 µM),relative viability (Midostaurin + Navitoclax; first compound 0.3162 µM)
NCI-H2342,0.657,0.561,0.587,0.643,0.529,0.584,0.637,0.628,0.807,1.03,1,0.932,0.913,0.903,1.04,0.989,–,–,–,–
HCC-15,0.47,0.459,0.472,0.44,0.525,0.447,0.476,0.42,1.21,0.785,0.971,1.06,1.05,0.902,1.05,1.05,0.721,0.697,0.71,0.704
A-427,0.296,0.34,0.289,0.25,0.335,–,0.268,0.254,1.05,0.837,0.973,0.863,0.927,0.879,1.03,0.985,0.977,0.859,0.883,0.767
NCI-H2228,0.405,0.363,0.366,0.5,0.278,0.26,0.327,0.327,1.22,1,1.12,0.744,1.02,0.969,1.22,1.18,0.665,0.824,1.01,1.02
NCI-H1734,0.421,0.354,0.453,0.366,0.331,0.297,0.391,0.379,1,0.944,0.948,0.783,0.939,0.939,0.998,0.871,0.829,0.813,0.798,0.697
PC-14,0.603,0.717,0.522,0.52,0.646,0.599,0.581,0.751,1.09,1.13,0.957,1.08,0.995,0.988,0.963,0.961,0.973,1.01,0.985,0.965
NCI-H1915,0.35,0.348,0.352,0.352,0.387,0.396,0.375,0.334,1.03,0.783,0.957,0.831,0.951,0.946,0.951,1.03,0.8,0.827,0.794,0.799
NCI-H1666,0.496,0.537,0.546,0.537,0.568,0.567,0.577,0.537,0.98,0.872,0.947,0.941,1.03,0.953,0.992,0.888,0.872,0.855,0.84,0.846
HCC-366,0.597,0.528,0.689,0.615,0.566,0.664,0.623,0.658,0.995,1.04,0.977,0.916,0.913,1.03,1.02,0.955,1.07,1.16,1,1.06
SK-MES-1,0.647,0.582,0.631,0.562,0.785,0.708,0.587,0.631,1.02,1.07,1.01,0.912,0.998,0.92,0.967,0.89,1.17,1.13,1.18,1.15
SW 1573,0.379,0.462,0.41,0.308,0.344,0.34,0.371,0.399,0.926,0.922,0.982,0.766,0.991,1.08,1.05,0.969,0.957,1.01,0.971,1.22
NCI-H661,0.279,0.286,0.261,0.311,0.271,0.273,0.256,0.261,1.02,1.07,1,0.779,0.963,0.869,0.991,1.11,–,–,–,–
PC-3 [JPC-3],0.497,0.474,0.491,0.517,0.488,0.474,0.461,0.512,1.01,1.09,1.01,1.09,0.991,0.907,1.07,1.1,0.752,0.777,0.791,0.851
NCI-H1623,0.588,0.626,0.56,0.634,0.622,0.508,0.603,0.53,1.01,1.05,0.946,0.739,0.982,0.956,1.05,1.23,–,–,–,–
